Measurements: ChEMBL document CHEMBL3286174, “Orally active 7-substituted (4-benzylphthalazin-1-yl)-2-methylpiperazin-1-yl]nicotinonitriles as active-site inhibitors of sphingosine 1-phosphate lyase for the treatment of multiple sclerosis” (J Med Chem, 2014)

Tests used:
[1] = biological target: T1, Sphingosine-1-phosphate lyase 1 (Homo sapiens, UniProt O95470); assay: biochemical
T1 sequence (O95470 whole entry): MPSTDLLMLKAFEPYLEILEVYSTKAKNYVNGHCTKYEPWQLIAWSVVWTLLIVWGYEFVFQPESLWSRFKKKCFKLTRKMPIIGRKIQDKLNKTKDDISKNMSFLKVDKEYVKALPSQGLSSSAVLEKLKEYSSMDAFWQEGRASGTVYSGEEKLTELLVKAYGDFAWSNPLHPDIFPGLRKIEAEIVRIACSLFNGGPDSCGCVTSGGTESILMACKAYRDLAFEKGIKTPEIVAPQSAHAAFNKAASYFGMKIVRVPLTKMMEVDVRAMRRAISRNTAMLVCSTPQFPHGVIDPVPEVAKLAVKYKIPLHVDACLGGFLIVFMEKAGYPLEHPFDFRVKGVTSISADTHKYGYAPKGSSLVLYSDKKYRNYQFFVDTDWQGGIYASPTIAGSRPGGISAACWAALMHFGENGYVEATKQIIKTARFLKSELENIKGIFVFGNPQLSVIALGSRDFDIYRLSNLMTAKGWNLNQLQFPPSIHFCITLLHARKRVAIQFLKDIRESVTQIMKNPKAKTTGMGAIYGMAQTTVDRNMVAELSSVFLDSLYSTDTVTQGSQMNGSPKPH
Description: Inhibition of human recombinant S1PL (62 to 568) expressed in Sf9 insect cells using S1P as substrate after 1 hr

[2] = Drug level in blood of incomplete Freund's adjuvant-induced autoimmune encephalomyelitis DA rat model at 2 mg/kg, po bid administered 2 days before the induction of EAE; type: organism-based; parameters: dose 2 mg/kg, route oral; details: whole blood, read-out: Drug uptake
[3] = Tmax in Sprague-Dawley rat at 3 mg/kg, po; type: ADME, organism-based; parameters: dose 3 mg/kg, route oral; details: in vivo
[4] = Drug level in brain of incomplete Freund's adjuvant-induced autoimmune encephalomyelitis DA rat model at 2 mg/kg, po bid administered 2 days before the induction of EAE; type: organism-based; parameters: dose 2 mg/kg, route oral; details: read-out: Drug uptake
[5] = Blood clearance in Sprague-Dawley rat at 1 mg/kg, iv; type: ADME, organism-based; parameters: dose 1 mg/kg, route intravenous; details: whole blood
[6] = AUC (0 to infinity) in Sprague-Dawley rat at 3 mg/kg, po; type: ADME, organism-based, Plasma; parameters: time infinity, dose 3 mg/kg, route oral; details: blood
Rattus norvegicus [7] = assay: Antiinflammatory activity in incomplete Freund's adjuvant-induced autoimmune encephalomyelitis DA rat model assessed as S1P level in brain at 2 mg/kg, po bid administered 2 days before the induction of EAE; type: functional
[8] = Half life in Sprague-Dawley rat at 1 mg/kg, iv; type: ADME, organism-based; parameters: dose 1 mg/kg, route intravenous; details: in vivo
[9] = Oral bioavailability in Sprague-Dawley rat at 3 mg/kg; type: ADME, organism-based; details: in vivo
Rattus norvegicus [10] = assay: Reduction of peripheral B cell level in Wistar rat at 2 mg/kg, po administered ever 12 hrs for 4 times measured 12 hrs after last dose by flow cytometry analysis; type: functional; parameters: scale not given: the % may be the effect or the level left
Protein smoothened = Protein smoothened (Homo sapiens, UniProt Q99835); assay: Antagonist activity at smoothened (unknown origin)
Sequence of Protein smoothened (Q99835 whole entry): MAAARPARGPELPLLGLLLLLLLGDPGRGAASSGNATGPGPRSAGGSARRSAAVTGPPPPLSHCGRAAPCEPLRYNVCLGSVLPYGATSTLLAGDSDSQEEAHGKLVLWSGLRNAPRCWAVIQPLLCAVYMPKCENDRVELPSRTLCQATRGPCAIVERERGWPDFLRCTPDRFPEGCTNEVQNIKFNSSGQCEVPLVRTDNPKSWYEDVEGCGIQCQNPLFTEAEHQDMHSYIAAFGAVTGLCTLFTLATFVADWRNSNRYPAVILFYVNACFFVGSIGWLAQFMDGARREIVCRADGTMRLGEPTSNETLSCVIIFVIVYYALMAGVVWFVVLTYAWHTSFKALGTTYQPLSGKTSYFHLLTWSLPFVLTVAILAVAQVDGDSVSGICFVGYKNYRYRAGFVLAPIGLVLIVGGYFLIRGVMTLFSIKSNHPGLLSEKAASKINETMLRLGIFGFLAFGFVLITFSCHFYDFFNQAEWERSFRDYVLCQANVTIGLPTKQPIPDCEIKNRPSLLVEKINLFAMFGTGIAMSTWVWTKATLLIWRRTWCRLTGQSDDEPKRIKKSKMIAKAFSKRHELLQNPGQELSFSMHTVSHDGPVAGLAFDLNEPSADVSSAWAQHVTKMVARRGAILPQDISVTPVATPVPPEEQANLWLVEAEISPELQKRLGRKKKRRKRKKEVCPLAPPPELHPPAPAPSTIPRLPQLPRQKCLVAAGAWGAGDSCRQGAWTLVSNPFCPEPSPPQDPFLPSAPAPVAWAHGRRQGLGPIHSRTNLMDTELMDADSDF

Rattus norvegicus [11] = assay: Antiinflammatory activity in incomplete Freund's adjuvant-induced autoimmune encephalomyelitis DA rat model assessed as S1P level in lymph node at 2 mg/kg, po bid administered 2 days before the induction of EAE relative to control; type: functional
[12] = Cmax in Sprague-Dawley rat at 3 mg/kg, po; type: ADME, organism-based; parameters: dose 3 mg/kg, route oral; details: in vivo
Rattus norvegicus [13] = assay: Reduction of peripheral CD4+ T cell level in Wistar rat at 50 mg/kg, po after 14 to 24 hrs by flow cytometry analysis; type: functional; parameters: scale not given: the % may be the effect or the level left
[14] = Plasma concentration in Wistar rat at 2 mg/kg, po administered ever 12 hrs for 4 times measured 12 hrs after last dose; type: ADME, organism-based; parameters: dose 2 mg/kg, route oral
Rattus norvegicus [15] = assay: Reduction of peripheral CD4+ and CD8+ T cell level in Wistar rat at 2 mg/kg, po administered ever 12 hrs for 4 times measured 12 hrs after last dose by flow cytometry analysis; type: functional; parameters: scale not given: the % may be the effect or the level left
[16] = biological target: T1, Sphingosine-1-phosphate lyase 1; assay: Inhibition of S1PL (unknown origin)

Row | SMILES | IC50 [1] | further results
1 | CCOC(=O)c1ccc(N2CCN(c3nnc(Cc4ccccc4)c4ccccc34)C[C@H]2C)nc1 | 3.4 µM | 
2 | C[C@@H]1CN(c2nnc(Cc3ccccc3)c3ccccc23)CCN1c1ccc(C(F)(F)F)cn1 | 30 µM | 
3 | C[C@@H]1CN(c2nnc(Cc3ccccc3)c3ccccc23)CCN1c1ccc([N+](=O)[O-])cn1 | 0.74 µM | 
4 | C[C@@H]1CN(c2nnc(Cc3ccccc3)c3ccccc23)CCN1c1ccc(C(=O)O)cn1 | > 30 µM | 
5 | C[C@@H]1CN(c2nnc(Cl)c3ccccc23)CCN1c1ccc(C#N)cn1 | > 30 µM | 
6 | C[C@@H]1CN(c2nnc(-c3ccccc3)c3ccccc23)CCN1c1ccc(C#N)cn1 | > 30 µM | 
7 | C[C@@H]1CN(c2nnc(Cc3ccccc3)c3cc(C(F)(F)F)ccc23)CCN1c1ccc(C#N)cn1 | 12 µM | 
8 | C[C@@H]1CN(c2nnc(Cc3ccccc3)c3ccc(C(F)(F)F)cc23)CCN1c1ccc(C#N)cn1 | 0.1 µM | 
9 | C[C@@H]1CN(c2nnc(Cc3ccccc3)c3cc(C#N)ccc23)CCN1c1ccc(C#N)cn1 | 1.3 µM | 
10 | C[C@@H]1CN(c2nnc(Cc3ccccc3)c3ccc(C#N)cc23)CCN1c1ccc(C#N)cn1 |  | IC50 (Protein smoothened): > 25 µM
11 | CC(=O)c1nc([C@@H](O)[C@H](O)[C@H](O)CO)c[nH]1 |  | IC50 [16]: > 100 µM
12 | N#Cc1ccc(N2CCN(c3nnc(Cc4ccccc4)c4ccccc34)CC2)nc1 | > 30 µM | 
13 | CCCCCCCCc1ccc(CCC(N)(CO)CO)cc1 [FINGOLIMOD] | 17 µM | IC50 [16]: 17 µM
14 | C/C(=N\O)c1nc([C@@H](O)[C@H](O)[C@H](O)CO)c[nH]1 [LX-2931] |  | IC50 [16]: > 100 µM

Now from value to compound, other results behind:

Row | IC50 [1] | SMILES | further results
15 | 1.7 µM | CC[C@@H]1CN(c2nnc(Cc3ccccc3)c3ccccc23)CCN1c1ccc(C#N)cn1 | 
16 | 2.5 µM | CC(C)[C@@H]1CN(c2nnc(Cc3ccccc3)c3ccccc23)CCN1c1ccc(C#N)cn1 | 
17 | 30 µM | C[C@@H]1CN(c2nnc(CCc3ccccc3)c3ccccc23)CCN1c1ccc(C#N)cn1 | 
18 | 2.3 µM | C[C@@H]1CN(c2nnc(Cc3ccccc3)c3cc(Cl)ccc23)CCN1c1ccc(C#N)cn1 | 
19 | 0.21 µM | C[C@@H]1CN(c2nnc(Cc3ccccc3)c3ccc(Cl)cc23)CCN1c1ccc(C#N)cn1 | concentration at 48 h [2]: 840 nM; Tmax [3]: 5 h; concentration at 48 h [4]: 610 nM; clearance [5]: 23 mL/min/kg; AUC(0-inf) [6]: 1.3 µM·h; Activity (Rattus norvegicus [7]): 2.4 pmol/mg; half-life [8]: 9.1 h; bioavailability [9]: 26%; Activity (Rattus norvegicus [10]): 70%; IC50 (Protein smoothened): 0.44 µM; fold change (FC) (Rattus norvegicus [11]): 150; Cmax [12]: 99 nM; Activity (Rattus norvegicus [13]): >80%; concentration at 12 h [14]: 400 nM; Activity (Rattus norvegicus [15]): >95%
20 | > 30 µM | C[C@H]1CN(c2nnc(Cc3ccccc3)c3ccccc23)CCN1c1ccc(C#N)cn1 | 
21 | 2.4 µM | C[C@@H]1CN(c2nnc(Cc3ccccc3)c3ccccc23)CCN1c1ccc(C#N)cn1 | 
22 | > 30 µM | N#Cc1ccc(N2CCN(c3nnc(Cc4ccccc4)c4ccccc34)CC2CO)nc1 (single isomer, unassigned) | 
